Experiment [1] has as its target T1, MET channel of Tmc2−/− outer hair cells (TMC1-containing channel) (Mus musculus, UniProt Q8R4P5).
T1 construct: native MET channel complex in apical cochlear OHCs (P5-P6) of Tmc2 knockout mice; TMC1 the remaining TMC; full composition not known; with LHFPL tetraspan subfamily member 5 protein; Transmembrane inner ear expressed protein
T1 sequence (Q8R4P5 1-757): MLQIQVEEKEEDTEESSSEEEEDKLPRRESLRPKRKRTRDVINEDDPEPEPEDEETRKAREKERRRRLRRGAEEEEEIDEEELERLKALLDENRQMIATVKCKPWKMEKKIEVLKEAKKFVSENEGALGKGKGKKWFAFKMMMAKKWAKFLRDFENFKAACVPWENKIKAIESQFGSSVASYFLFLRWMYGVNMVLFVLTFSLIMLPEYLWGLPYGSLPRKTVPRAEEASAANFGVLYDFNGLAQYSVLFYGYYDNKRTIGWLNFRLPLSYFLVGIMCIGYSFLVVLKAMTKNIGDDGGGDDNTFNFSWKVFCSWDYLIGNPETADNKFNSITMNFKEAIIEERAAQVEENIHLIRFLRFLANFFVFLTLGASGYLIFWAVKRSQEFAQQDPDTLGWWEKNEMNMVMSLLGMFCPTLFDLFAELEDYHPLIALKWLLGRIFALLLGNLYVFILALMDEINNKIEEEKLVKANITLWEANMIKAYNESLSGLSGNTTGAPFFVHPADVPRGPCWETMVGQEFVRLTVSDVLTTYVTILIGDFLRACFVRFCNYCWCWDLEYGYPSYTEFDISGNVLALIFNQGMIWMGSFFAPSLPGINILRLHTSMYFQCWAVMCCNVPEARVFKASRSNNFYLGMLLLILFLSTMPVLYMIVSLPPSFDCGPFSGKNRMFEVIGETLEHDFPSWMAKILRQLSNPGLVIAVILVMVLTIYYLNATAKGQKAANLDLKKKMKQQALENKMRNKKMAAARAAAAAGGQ
Briefly: whole-cell patch clamp of OHC, block of MET current (fluid jet), Hill fit. The following applies: extracellular DHS, -81 mV, 1.3 mM Ca2+, pH 7.5, 20-25 °C; permeant open-channel pore blocker; native channel complex of Tmc2 knockout OHCs (P5-P6); read-out: KD. The experiment is classed as cell-based. (In general: The patch-clamp technique gives a direct electrical read-out from membranes.)

For experiment [2], the system named is T2, MET channel of Tmc2+/− outer hair cells (TMC1 and TMC2).
T2 construct: native MET channel complex in apical cochlear OHCs (P5-P6) of heterozygous control mice; mixture of TMC1 and TMC2 in unknown proportion; with LHFPL tetraspan subfamily member 5 protein; Transmembrane inner ear expressed protein
The experiment is described as above. The experiment is classed as cell-based, Mus musculus. The following applies: extracellular DHS, -81 mV, 1.3 mM Ca2+, pH 7.5, 20-25 °C; permeant open-channel pore blocker; native channel complex of Tmc2 heterozygous OHCs (P5-P6); read-out: KD.

As for `CN[C@@H]1[C@H](O[C@H]2[C@H](O[C@H]3[C@H](O)[C@@H](O)[C@H](NC(=N)N)[C@@H](O)[C@@H]3NC(=N)N)O[C@@H](C)[C@]2(O)CO)O[C@@H](CO)[C@H](O)[C@H]1O` [dihydrostreptomycin], the IC50 was determined as 5.9 ± 0.2 µM in experiment [1] and 9.1 ± 0.4 µM in experiment [2].
